Laboratory results from patent EP4682145A1, “BENZOHETEROCYCLIC COMPOUND, AND PREPARATION METHOD THEREFOR AND USE THEREOF” (Cascade Pharmaceuticals, Inc., priority 2023, dated 2024).

Target: T1, human FFAR1 (GPR40) (Homo sapiens, UniProt O14842)
T1 construct: Flag; expressed in transfected cells; host or cells: HEK293T
Test: NFAT-RE-based reporter gene activity assay (Dual-Glo luciferase) for GPR40 agonistic activity in co-transfected HEK293T cells
Type: cell-based
Conditions: 4-hour treatment; for Efficacy (%): class symbols
From the text: The pcDNA3.0-flag-FFAR1 (GPR40) plasmid was constructed using conventional molecular cloning methods. The main steps were as follows: The full-length cDNA sequence of human FFAR1 (GPR40) (NM_005303.3) was inserted into the HindIII and XbaI restriction sites of the pcDNA3.0 vector via PCR technology, resulting in the pcDNA3.0-flag-FFAR1 (GPR40) plasmid; pGL4.30 [luc2P NFAT-RE] (# E8481) and pRL-TK (#E2241) plasmids were both purchased from Promega; the plasmids were transformed into DH5α E. coli using the CaCl2 method, further cultured and amplified, and then purified using a plasmid extraction kit (TIANGEN, # DP117) to obtain the corresponding plasmid DNA.
HEK293T cells were seeded in a 96-well plate at a density of 1 × 10^4/well one day prior to plasmid transfection. Cell transfection was performed according to the instructions of the transfection reagent FuGENE® HD (Promega, # E2311). The main steps were as follows: Taking one well as an example, plasmids pcDNA3.0-flag-FFAR1 (GPR40), pGL4.30 [luc2P NFAT-RE], and pRL-TK were added at ratios of 50 ng, 50 ng, and 5 ng, respectively, into 10 µL of Opti-MEM™ I medium (Gibco, #11058021) and mixed thoroughly; then, 0.2 µL of FuGENE® HD was added, mixed thoroughly, and allowed to stand at room temperature for 5 minutes; finally, this 10 µL mixture was added to the cell well containing 100 µL of culture medium. 24 hours after co-transfection, the compounds were serially diluted at half-logarithmic intervals with 1 µM as the highest concentration, resulting in 10 concentration gradients, which were added to the cell culture medium for a 4-hour treatment.
After 4 hours of compound treatment, the cells were assayed according to the instructions of the Dual-Glo® Luciferase Assay System (Promega, # E2940). The main steps were as follows: 50 µL of culture medium was aspirated from each well and discarded, followed by the addition of 50 µL of Dual-Glo® Luciferase Reagent, and the mixture was shaken at room temperature for 10 minutes. Then, 80 µL of the lysate reaction solution was transferred to a white opaque optiPlate-96 well plate, and the luminescence signal of Firefly luciferase (Firefly-Luc) was measured using an MD i3x multifunctional microplate reader. Subsequently, 40 µL of Dual-Glo® Stop & Glo® Reagent was added, and the mixture was shaken at room temperature for 10 minutes. Finally, the luminescence signal of Renilla luciferase (Renilla-Luc) was measured using the MD i3x multifunctional microplate reader. The ratio of Firefly-Luc/Renilla-Luc was used as the compound's agonistic activity toward GPR40, and normalization was performed using the ratio of the solvent DMSO group. A dose-response curve was fitted using a four-parameter model with GraphPad Prism 8.0 software to calculate the EC50 value.

T1 sequence (O14842 whole entry): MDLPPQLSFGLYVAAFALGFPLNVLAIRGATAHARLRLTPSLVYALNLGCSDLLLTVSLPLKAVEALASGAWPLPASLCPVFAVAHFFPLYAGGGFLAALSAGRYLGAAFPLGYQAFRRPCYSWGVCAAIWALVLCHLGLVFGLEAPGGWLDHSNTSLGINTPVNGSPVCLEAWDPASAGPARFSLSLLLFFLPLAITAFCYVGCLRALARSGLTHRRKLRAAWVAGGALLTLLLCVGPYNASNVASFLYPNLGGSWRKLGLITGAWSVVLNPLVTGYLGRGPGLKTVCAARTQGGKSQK

COc1cccc(N2CCC(c3oc4cc([C@@H](CC(=O)O)C5CC5)ccc4c3-c3csc(C(C)(C)C)n3)CC2)c1 [Compound 108]
EC50: 10 to 100 nM
Efficacy (%): ††† (Efficacy (%) > 150)

COc1cccc(N2CCC(c3oc4cc([C@@H](CC(=O)O)C5CC5)ccc4c3-c3nc(C(C)C)cs3)CC2)c1 [Compound 109]
EC50: 100 to 500 nM
Efficacy (%): †† (150 ≥ Efficacy (%) > 100)

COc1cccc(N2CCC(c3oc4cc([C@@H](CC(=O)O)C5CC5)ccc4c3-c3nc(C(C)(C)C)cs3)CC2)c1 [Compound 110]
EC50: 10 to 100 nM
Efficacy (%): †† (150 ≥ Efficacy (%) > 100)

COc1cccc(N2CCC(c3oc4cc(C(CC(=O)O)C5CC5)ccc4c3-c3ncc(C(C)C)s3)CC2)c1 (stereo not drawn) [Compound 111]
EC50: 10 to 100 nM
Efficacy (%): ††† (Efficacy (%) > 150)

COc1cccc(N2CCC(c3oc4cc([C@@H](CC(=O)O)C5CC5)ccc4c3-c3ncc(C(C)C)s3)CC2)c1 [Compound 112]
EC50: 10 to 100 nM
Efficacy (%): †† (150 ≥ Efficacy (%) > 100)

COc1cccc(N2CCC(c3oc4cc([C@@H](CC(=O)O)C5CC5)ccc4c3-c3ncc(C(C)(C)C)s3)CC2)c1 [Compound 113]
EC50: ≤ 10 nM
Efficacy (%): †† (150 ≥ Efficacy (%) > 100)

COc1cccc(N2CCC(c3oc4cc(C(CC(=O)O)C5CC5)ccc4c3-c3cc(C(C)(C)C)on3)CC2)c1 (stereo not drawn) [Compound 114]
EC50: 10 to 100 nM
Efficacy (%): †† (150 ≥ Efficacy (%) > 100)

COc1cccc(N2CCC(c3oc4cc(C(CC(=O)O)C5CC5)ccc4c3-c3cc(C(C)(C)C)no3)CC2)c1 (stereo not drawn) [Compound 115]
EC50: ≤ 10 nM
Efficacy (%): †† (150 ≥ Efficacy (%) > 100)

COc1cccc(N2CCC(c3oc4cc([C@@H](CC(=O)O)C5CC5)ccc4c3-c3cc(C(C)(C)C)no3)CC2)c1 [Compound 116]
EC50: ≤ 10 nM
Efficacy (%): †† (150 ≥ Efficacy (%) > 100)

COc1cccc(N2CCC(c3oc4cc([C@@H](CC(=O)O)C5CC5)ccc4c3-c3nc(C(C)(C)C)co3)CC2)c1 [Compound 117]
EC50: 10 to 100 nM
Efficacy (%): †† (150 ≥ Efficacy (%) > 100)

COc1cccc(N2CCC(c3oc4cc(C(CC(=O)O)C5CC5)ccc4c3-c3nnc(C(C)(C)C)s3)CC2)c1 (stereo not drawn) [Compound 118]
EC50: 10 to 100 nM
Efficacy (%): †† (150 ≥ Efficacy (%) > 100)

COc1cccc(N2CCC(c3oc4cc(C(CC(=O)O)C5CC5)ccc4c3-c3cn(C)nn3)CC2)c1 (stereo not drawn) [Compound 120]
EC50: > 500 nM
Efficacy (%): †† (150 ≥ Efficacy (%) > 100)

COc1cccc(N2CCC(c3oc4cc(C(CC(=O)O)C5CC5)ccc4c3-c3ncn(C)n3)CC2)c1 (stereo not drawn) [Compound 121]
EC50: > 500 nM
Efficacy (%): †† (150 ≥ Efficacy (%) > 100)

COc1cccc(N2CCC(c3oc4cc(C(CC(=O)O)C5CC5)ccc4c3-c3noc(C(C)(C)C)n3)CC2)c1 (stereo not drawn) [Compound 122]
EC50: 10 to 100 nM
Efficacy (%): †† (150 ≥ Efficacy (%) > 100)

COc1cccc(N2CCC(c3oc4cc(C(CC(=O)O)C5CC5)ccc4c3-c3nnc(C(C)C)o3)CC2)c1 (stereo not drawn) [Compound 123]
EC50: 100 to 500 nM
Efficacy (%): †† (150 ≥ Efficacy (%) > 100)

COc1cccc(N2CCC(c3oc4cc(C(CC(=O)O)C5CC5)ccc4c3-c3nnc(C(C)(C)C)o3)CC2)c1 (stereo not drawn) [Compound 124]
EC50: 10 to 100 nM
Efficacy (%): †† (150 ≥ Efficacy (%) > 100)

COc1cccc(N2CCC(c3oc4cc([C@@H](CC(=O)O)C5CC5)ccc4c3-c3nnc(C(C)(C)C)o3)CC2)c1 [Compound 125]
EC50: 10 to 100 nM
Efficacy (%): †† (150 ≥ Efficacy (%) > 100)

COc1cccc(N2CCC(c3oc4cc(C(CC(=O)O)C5CC5)ccc4c3-c3nnc(C(C)(C)C(F)(F)F)o3)CC2)c1 (stereo not drawn) [Compound 126]
EC50: 10 to 100 nM
Efficacy (%): †† (150 ≥ Efficacy (%) > 100)

COc1cccc(N2CCC(c3oc4cc(C(CC(=O)O)C5CC5)ccc4c3-c3cnn(C(C)(C)C#N)c3)CC2)c1 (stereo not drawn) [Compound 127]
EC50: 100 to 500 nM
Efficacy (%): ††† (Efficacy (%) > 150)

CCC(C)(C)c1nnc(-c2c(C3CCN(c4cccc(OC)c4)CC3)oc3cc(C(CC(=O)O)C4CC4)ccc23)o1 (stereo not drawn) [Compound 128]
EC50: 10 to 100 nM
Efficacy (%): †† (150 ≥ Efficacy (%) > 100)

CCCC(C)(C)c1nnc(-c2c(C3CCN(c4cccc(OC)c4)CC3)oc3cc(C(CC(=O)O)C4CC4)ccc23)o1 (stereo not drawn) [Compound 129]
EC50: 10 to 100 nM
Efficacy (%): †† (150 ≥ Efficacy (%) > 100)

CCCCC(C)(C)c1nnc(-c2c(C3CCN(c4cccc(OC)c4)CC3)oc3cc(C(CC(=O)O)C4CC4)ccc23)o1 (stereo not drawn) [Compound 130]
EC50: 10 to 100 nM
Efficacy (%): †† (150 ≥ Efficacy (%) > 100)

CCCCCC(C)(C)c1nnc(-c2c(C3CCN(c4cccc(OC)c4)CC3)oc3cc(C(CC(=O)O)C4CC4)ccc23)o1 (stereo not drawn) [Compound 131]
EC50: 10 to 100 nM
Efficacy (%): †† (150 ≥ Efficacy (%) > 100)

COC(=O)C(C)(C)n1cc(-c2c(C3CCN(c4cccc(OC)c4)CC3)oc3cc(C(CC(=O)O)C4CC4)ccc23)cn1 (stereo not drawn) [Compound 132]
EC50: 100 to 500 nM
Efficacy (%): ††† (Efficacy (%) > 150)

COc1cccc(N2CCC(c3oc4cc(C(CC(=O)O)C5CC5)ccc4c3-c3nnc(-c4ccccc4)o3)CC2)c1 (stereo not drawn) [Compound 133]
EC50: 100 to 500 nM
Efficacy (%): † (100 ≥ Efficacy (%) > 50)

COc1cccc(N2CCC(c3oc4cc(C(CC(=O)O)C5CC5)ccc4c3-c3nnc(C4(C)CC4)o3)CC2)c1 (stereo not drawn) [Compound 134]
EC50: 100 to 500 nM
Efficacy (%): † (100 ≥ Efficacy (%) > 50)

COc1cccc(N2CCC(c3oc4cc(C(CC(=O)O)C5CC5)ccc4c3-c3nnc(C(C)(C)CC4CCCCC4)o3)CC2)c1 (stereo not drawn) [Compound 135]
EC50: 10 to 100 nM
Efficacy (%): †† (150 ≥ Efficacy (%) > 100)

COc1cccc(N2CCC(c3oc4cc(C(CC(=O)O)C5CC5)ccc4c3-c3nnc(C(C)(C)CN4CCCCC4)o3)CC2)c1 (stereo not drawn) [Compound 137]
EC50: 10 to 100 nM
Efficacy (%): ††† (Efficacy (%) > 150)

COc1cccc(N2CCC(c3oc4cc(C(CC(=O)O)C5CC5)ccc4c3-c3nnc(C45CC6CC(CC(C6)C4)C5)o3)CC2)c1 (stereo not drawn) [Compound 139]
EC50: 100 to 500 nM
Efficacy (%): †† (150 ≥ Efficacy (%) > 100)

COc1cccc(N2CCC(c3oc4cc(C(CC(=O)O)C5CC5)ccc4c3-c3nnc(C4(C)CCCCC4)o3)CC2)c1 (stereo not drawn) [Compound 140]
EC50: 100 to 500 nM
Efficacy (%): ††† (Efficacy (%) > 150)

COc1cccc(N2CCC(c3oc4cc([C@@H](CC(=O)O)C5CC5)ccc4c3-c3nnc(C(C)(C)C)o3)CC2)c1F [Compound 141]
EC50: ≤ 10 nM
Efficacy (%): ††† (Efficacy (%) > 150)

COc1ccc(F)c(N2CCC(c3oc4cc([C@@H](CC(=O)O)C5CC5)ccc4c3-c3nnc(C(C)(C)C)o3)CC2)c1 [Compound 142]
EC50: 100 to 500 nM
Efficacy (%): †† (150 ≥ Efficacy (%) > 100)

CC(C)(C)c1nnc(-c2c(C3CCN(c4ccc5c(c4)OCO5)CC3)oc3cc([C@@H](CC(=O)O)C4CC4)ccc23)o1 [Compound 143]
EC50: 10 to 100 nM
Efficacy (%): †† (150 ≥ Efficacy (%) > 100)

COc1cccc(N2CCC(c3oc4cc([C@@H](CC(=O)O)C5CC5)ccc4c3-c3cncc(C)c3)CC2)c1 [Compound 144]
EC50: > 500 nM
Efficacy (%): †† (150 ≥ Efficacy (%) > 100)

COc1cccc(N2CCC(c3oc4cc([C@@H](CC(=O)O)C5CC5)ccc4c3-c3ccnc(C)c3)CC2)c1 [Compound 145]
EC50: 10 to 100 nM
Efficacy (%): †† (150 ≥ Efficacy (%) > 100)

COc1cccc(N2CCC(c3oc4cc([C@@H](CC(=O)O)C5CC5)ccc4c3-c3cc(C)ccn3)CC2)c1 [Compound 146]
EC50: 100 to 500 nM
Efficacy (%): ††† (Efficacy (%) > 150)

COc1cccc(N2CCC(c3oc4cc([C@@H](CC(=O)O)C5CC5)ccc4c3-c3cccc(C)n3)CC2)c1 [Compound 147]
EC50: 10 to 100 nM
Efficacy (%): ††† (Efficacy (%) > 150)

COc1cccc(N2CCC(c3oc4cc(C(CC(=O)O)C5CC5)ccc4c3-c3cccc(N(CC(C)(C)C)C(C)=O)n3)CC2)c1 (stereo not drawn) [Compound 148]
EC50: 100 to 500 nM
Efficacy (%): †† (150 ≥ Efficacy (%) > 100)

COc1cccc(N2CCC(c3oc4cc(C(CC(=O)O)C5CC5)ccc4c3-c3cccc(NC(=O)CC(C)(C)C)n3)CC2)c1 (stereo not drawn) [Compound 149]
EC50: 100 to 500 nM
Efficacy (%): †† (150 ≥ Efficacy (%) > 100)
